Laboratory results from patent US20230050846A1, “TREATMENT OF HEPATIC AND CARDIOVASCULAR DISORDERS” (LIFESEARCH, priority 2019, published 2023).
Peptide text beside a SMILES is read from it. * marks the point of attachment. Palmitoyl = CCCCCCCCCCCCCCCC(=O)*

What was measured:
[1] = biological target: T1, human F1Fo-ATPase (Homo sapiens, UniProt P06576); assay: F1-ATPase activity assay (NADH-coupled, purified enzyme); type: biochemical; conditions: 1 μM
T1 construct: Human F1Fo-ATPase was purified from HepG2 cells by immunocapture; endogenous in cells; host or cells: HepG2 cells; complex isolated by immunocapture with anti-ATP synthase antibody 12F4AD8AF8 (#ab109867, Abcam)
Source text: The mature human IF1 protein (SEQ ID NO: 5) was chemically synthesized by GenScript (Piscataway, N.J., USA) at >80% purity. The peptides derived from the mature human IF1 sequence (IF1-1-60, IF1-10-56, IF1-10-47) were produced by BachemAG (Bubendorf, Switzerland) with >90% purity.
Human F1Fo-ATPase was purified from HepG2 cells by immunocapture using mouse monoclonal anti-ATP synthase antibody (12F4AD8AF8, #ab109867, Abcam) according to manufacturer's instructions.
Measurement of F1-ATPase activity was assayed as previously described. Briefly, 10 μg of F1Fo-ATPase was prepared into 50 μL of activity assay buffer (10 mM HEPES, 150 mM NaCl, 5 mM KCl, 5 mM MgCl2, 0.5 mM phosphoenolpyruvate, 250 μM NADH, 100 μM ATP, 20 U lactate dehydrogenase, 120 U pyruvate kinase). The mixture was incubated at 37° C. for 30 min. Then the F1-ATPase activity was measured in a 96-well microplate by adding 5 μL of the mixture (1 μg of F1Fo-ATPase per point) per well to 200 μL of activity assay buffer at 37° C., and by adding 5 μL of buffer with or without peptide (1 μM each). The reduction in the absorbance of NADH was measured at 340 nm for 5 min with a Varioskan™ Flash Multimode Reader (Thermo Fisher Scientific). A slope was calculated for each well and the results expressed as a percentage of the control slope.

[2] = biological target: T2, ecto-F1-ATPase (HepG2 cells) (Homo sapiens, UniProt P06576); assay: ecto-F1-ATPase activity: extracellular ADP content, luciferin-luciferase assay; type: cell-based; conditions: HepG2, 5 min; for extracellular ADP concentration (ecto-F1-ATPase hydrolytic activity): peptide 0.1 to 5 μM (formula (I)) or 1 μM, effect blunted by IF1 1 μM
T2 construct: host or cells: HepG2
Method: The human hepatocyte cell line HepG2 was obtained from the American Type Culture Collection (#HB-8065). HepG2 were cultured in Dulbecco's Modified Eagle's Medium (DMEM)—high glucose (D0822, Sigma-Aldrich) supplemented with 10% fetal bovine serum (10270098, Life technologies), 1% Penicillin-Streptomycin solution (P0781, Sigma-Aldrich). HepG2 cells were seeded on 24-well plates at 75,000 cells/well (Day 0). After 24 hours of growing, cells were serum starved for 24 h in order to synchronize cell cycles (Day 1) and then replaced additional 24 h in complete cell growth medium (Day 2). On day 3, cells were washed and equilibrated in fresh DMEM—high glucose without red phenol for 1 h (D1145, Sigma-Aldrich).
The cells were then treated 5 min with different concentration of peptide of formula (I) (0.1 to 5 μM), the peptide of formula (II) (1 μM), SCR (1 μM), SCR-K-16 (1 μM) or apoA-I (10 μg/mL) purified from human plasma.
Specific ecto-F1-ATPase activation was assessed in the presence of IF1 protein (1 μM), a natural inhibitor of F1-ATPase that interacts with the β-subunit to inhibit the ATP hydrolysis activity [5].
Supernatants were then collected and centrifuged (10,000 g, 5 min, 4° C.) and processed for ADP and ATP measurement. For ADP measurement, ADP was converted into ATP in 150 mM NaCl, 5 mM KCl, 2 mM MgCl2, pH 7.5 buffer containing 0.5 mM phosphoenolpyruvate (PEP) and pyruvate kinase (PK, 6 U per point for 15 min at 37° C.). For ATP measurement, 100 μl of sample was analyzed using the ATP bioluminescence assay kit CLS II (Roche Diagnostics). Samples were added to the ATP assay mixture and luminescence was measured in a microplate reader Infinite F500 (Tecan, Switzerland) for 1000 ms. The ATP standard curve was produced in the same medium as the samples and in the 10^−5 to 10^−10 M concentration range. The ADP concentration was then calculated as the ATP concentration following ADP conversion minus the basal ATP concentration. Data are expressed as nanomoles of ADP produced.

[3] = system: primary mouse hepatocytes; assay: Steatotic primary mouse hepatocytes, intracellular triglyceride content; type: cell-based; conditions: 1 μM, 24 h
Method: Primary mouse hepatocytes were isolated as described in Example 3 from mice fed western-diet for 11-weeks (Envigo #TD.88137 containing 0.2% cholesterol, 42% kcal from fat, 34% sucrose by weight). Primary mouse hepatocytes were seeded in a 12-well plate at a density of 600,000 cells/well in growth medium and treated for 24 h with apoA-I (10 μg/mL), peptide of formula (I) (1 μM) or peptide of formula (II) (1 μM).
For measurement of intracellular triglyceride content, cells were washed with PBS and scraped in 5% NP-40 lysis buffer and heated for 10 min at 85° C. Triglycerides were then quantified using triglyceride commercial kit (Biolabo #87319). Values were normalized to protein concentration in cell lysates.

| Compound | stimulation of F1-ATPase activity [1] [%] | concentration at which maximum efficacy on extracellular ADP is reached [2] [µM] | extracellular ADP concentration (ecto-F1-ATPase hydrolytic activity) [2] | intracellular accumulation of triglycerides vs PBS control [3] |
| --- | --- | --- | --- | --- |
| Ac-RGAGSIREAGGAFGKREQAEEERYFRAQSRE-NH2 [peptide of formula (I), CH3CO-[SEQ ID NO: 1]-NH2] | 36 | 1 | increased | significantly reduced |
| CCCCCCCCCCCCCCCC(=O)NCCCC[C@H](NC(=O)[C@H](CCC(=O)O)NC(=O)[C@H](CCCNC(=N)N)NC(=O)[C@H](CO)NC(=O)[C@H](CCC(N)=O)NC(=O)[C@H](C)NC(=O)[C@H](CCCNC(=N)N)NC(=O)[C@H](Cc1ccccc1)NC(=O)[C@H](Cc1ccc(O)cc1)NC(=O)[C@H](CCCNC(=N)N)NC(=O)[C@H](CCC(=O)O)NC(=O)[C@H](CCC(=O)O)NC(=O)[C@H](CCC(=O)O)NC(=O)[C@H](C)NC(=O)[C@H](CCC(N)=O)NC(=O)[C@H](CCC(=O)O)NC(=O)[C@H](CCCNC(=N)N)NC(=O)[C@H](CCCCN)NC(=O)CNC(=O)[C@H](Cc1ccccc1)NC(=O)[C@H](C)NC(=O)CNC(=O)CNC(=O)[C@H](C)NC(=O)[C@H](CCC(=O)O)NC(=O)[C@H](CCCNC(=N)N)NC(=O)[C@@H](NC(=O)[C@H](CO)NC(=O)CNC(=O)[C@H](C)NC(=O)CNC(=O)[C@H](CCCNC(=N)N)NC(C)=O)[C@@H](C)CC)C(N)=O [peptide of formula (II), CH3CO-[SEQ ID NO: 1]-K-[palmitoyl]-NH2] (Ac-RGAGSIREAGGAFGKREQAEEERYFRAQSREK(Palmitoyl)-NH2) | 43 |  | stimulated | significantly reduced |
